Experiments:
M71 OR [1] = target: T1, M71 OR (Mus musculus, UniProt Q60893); assay: Two-bottle discrimination behavioral avoidance task (odor detection threshold) with 24dMACP; type: in vivo
T1 construct: the increase of OSNs expressing the M71 OR results in the coalescence of labeled axons; expressed in transfected cells; host or cells: olfactory sensory neurons of living transgenic mice (4•M71Cα, 5•M71Cα), made by pronuclear injection of the M71 minigene
T1 sequence (Q60893 1-309): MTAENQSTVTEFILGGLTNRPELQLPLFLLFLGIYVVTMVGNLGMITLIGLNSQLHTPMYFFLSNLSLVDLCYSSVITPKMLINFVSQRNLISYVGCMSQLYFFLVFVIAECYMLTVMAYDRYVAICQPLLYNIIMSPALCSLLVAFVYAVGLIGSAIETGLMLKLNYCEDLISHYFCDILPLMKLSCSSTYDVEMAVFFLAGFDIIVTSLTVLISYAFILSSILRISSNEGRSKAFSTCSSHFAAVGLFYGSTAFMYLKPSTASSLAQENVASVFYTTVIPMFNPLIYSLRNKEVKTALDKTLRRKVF
Experimental: Sensitivity studies performed in Wistar rat neonates and adults have shown that the highest sensitivity to an odor (lowest threshold) correlates with the highest OSN density in the MOE. […] Therefore, it was desirable to assess whether detection of the most robust M71 ligand is amplified in this M71 line. An avoidance task was used in which the odorant 24dMACP is added to drinking water and becomes an aversive stimulus associated with injection of Lithium Chloride (LiCl), a compound known to induce gastric malaise. After conditioning homozygous 4•M71Cα animals and their WT littermates to water containing a 10-4 dilution of 24dMACP, the animals are given the choice between plain water and water with decreasing concentrations of 24dMACP (10^−4, 10^−6, 5×10^−7 and 10^−7). Note that all tested animals are homozygous for M71G, so even WT have a functional M71 OR.
The results are presented as a preference index (PI) for the odorized water for each group of animals which is calculated as the amount of the odorized water consumed divided by the total amount of liquid (odor and no-odor water) consumed over a 24 hr time period (FIG. 3A). A PI of 50% reflects no preference of the animal. […] When presented with 10^−4 and 10^−6 dilutions, both conditioned 4•M71Cα homo and WT animals show a clear aversion towards 24dMACP reflected through an average PI for 24dMACP of about 10%. However, when 24dMACP is delivered at 10^−7 all animals fail to detect the presence of the odor with an average PI of 53.41% for the WT (n=4) and 62.67% for the homozygous animals (n=8).
To compare specific odorant sensitivity between the 5•M71Cα and the 4•M71Cα line, the 2-bottle discrimination behavioral task was performed with 24dMACP as described above (FIG. 3B). […] Even though the same but slightly more significant 0.3 log decrease in odorant detection threshold is observed in the 5•M71Cα line, it is important to mention that 5•M71Cα hemi animals were used which have about 1.6% of their OSNs expressing M71 (similar to the 4•M71Cα homo animals with about 2% M71 expressing OSNs).
Olfactory behavior test: A two-bottle discrimination test was performed as previously described. Since the mice are tested for the ability to detect a single odor in drinking water at increasingly lower concentrations, this discrimination assay is also considered a detection threshold test. Mice 8 weeks old were individually housed and given food ad libitum but restricted access to saccharin-phthalic acid solution (2.1×10^−2 M sodium saccharin and 10^−3M phthalic acid pH 6.5) for 1 h twice a day for two days before the assay begins. This ensures mice would commence drinking the solution during the conditioning. On day 3 (conditioning day) mice are exposed to sodium saccharine phthalic acid (SSPA) solution with 1 dilution of odorized water for 10 minutes. Immediately after, they are injected with lithium chloride intraperitoneally (15 μl/g body weight of a 0.6 M solution) to induce the aversive malaise and lethargy state. After two hours mice are returned to their home cage and given access to two bottles of drinking water; they are given the choice between SSPA solution containing a 10^−4 dilution of the odor versus the non-odorized SSPA solution. During the following 3 days, every 24 hours, the location of the bottles is reversed and the concentration of the odorized solution is decreased to 10^−6, 10^−7 and 0.5×10^−6, respectively. Every day both bottles are weighed to determine the amount of liquid consumed. A preference index was calculated as the amount of odorized solution consumed divided by the total amount of water solution consumed for each mouse for every 24 hour test period at each odor concentration. Student's t test was performed to test statistical significance, assuming two-tailed distribution and two-sample unequal variance. Values are mean±SEM and are plotted on a LOG scale.

M71 OR [2] = target: T1, M71 OR; assay: as above; type: in vivo; conditions: naïve, 10^−6 dilution, 24 hr
[3] = at 25° C.; cited from earlier work
M71 = target: T2, M71 (Mus musculus, UniProt Q60893); conditions: previous ex vivo data; liquid phase; cited from earlier work
T2 construct: from ex vivo analysis of genetically defined M71 OSNs in gene-targeted mice; host or cells: dendritic knobs of M71-expressing olfactory sensory neurons from gene-targeted mice
T2 sequence (Q60893 1-309): T1 sequence (Q60893 1-309)

For `CC(=O)c1ccc(C)cc1C` [24dMACP, 2,4-dimethyl acetophenone], the “average PI” value (M71 OR [1]; 5•M71Cα hemi group, dilution 5×10^−7) was 19.62%, the “decrease in odorant detection threshold” value (M71 OR [1]; 5•M71Cα line vs WT (same as 4•M71Cα line)) was 0.3 log and the “average PI” value (M71 OR [1]; WT group of the 5•M71Cα experiment, dilution 5×10^−7) was 55.32%. The “average PI” value (M71 OR [1]; conditioned 4•M71Cα homo and WT animals, 10^−4 and 10^−6 dilutions) was “about 10%”, the PI (M71 OR [1]; conditioned 4•M71Cα homozygous mutants, 5×10^−7 dilution) was 26.12% and the “average PI” value (M71 OR [1]; conditioned 4•M71Cα homozygous, 10^−7 dilution) was 62.67%. For the same compound, the PI (M71 OR [1]; conditioned WT (littermates of 4•M71Cα), 5×10^−7 dilution) was 62.79%, the PI (M71 OR [1]; conditioned WT, 10^−4 dilution) was 11.84% and the “average PI” value (M71 OR [1]; conditioned WT, 10^−7 dilution) was 53.41%. For the same compound, the “preference index (PI) for odorized water” value (M71 OR [2]; unconditioned 4•M71Cα Homo mice) was 59%, the “preference index (PI) for odorized water” value (M71 OR [2]; unconditioned WT mice) was 60% and the “saturated vapor pressure (Ps)” value [3] was 0.0811 mmHg. For the same compound, the “elicit a M71 response ex vivo” value (M71) was “did”.

Source: patent publication US12063914B2, “DNA sequence that increases odorant receptor representation in the olfactory system” (Research Foundation of the City University of New York, priority 2015, dated 2024)
